Source: publication PMC8599861, “Structures of prokaryotic ubiquitin-like protein Pup in complex with depupylase Dop reveal the mechanism of catalytic phosphate formation” (Nature Communications, 2021)

Experiments:
[1] = target: T1, AcelDop (in complex with AcelPup deltaN43) (Acidothermus cellulolyticus, UniProt A0LU48); experiment: X-ray crystal structures, […]-1.[…] A; assay type: binding; conditions: with PupE deltaN43 and MgF3(H2O)- (7OYF), phosphorylated PupE, Mg2+/K+ (7OY3; ADP formed in crystal soaked with ATP) or MgF4 2- (7OYH); nucleotide site
T1 construct: gene dop; C-terminal TEV-His6 tag cleaved, E. coli Rosetta (DE3); Pup fragment deltaN43 (PupQ, PupE or PupBSO) synthetic; with Prokaryotic ubiquitin-like protein Pup

[2] = target: T1, AcelDop (in complex with AcelPup deltaN43); experiment: X-ray crystal structure, […] A; assay type: binding; conditions: co-crystal with PupQ deltaN43 and Mg2+; nucleotide site, about 72 % occupancy
[3] = target: T1, AcelDop (in complex with AcelPup deltaN43); experiment: intact mass spectrometry of phosphorylated PupBSO; assay type: biochemical; conditions: 2 mM ATP, PupBSO deltaN43 as phosphoryl acceptor, 20 mM MgCl2, pH 8.0, 30 C

T1 sequence (A0LU49 44-71 E71Q): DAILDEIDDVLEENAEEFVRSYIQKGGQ
T1 sequence (A0LU48 whole entry, the tested form may be a part): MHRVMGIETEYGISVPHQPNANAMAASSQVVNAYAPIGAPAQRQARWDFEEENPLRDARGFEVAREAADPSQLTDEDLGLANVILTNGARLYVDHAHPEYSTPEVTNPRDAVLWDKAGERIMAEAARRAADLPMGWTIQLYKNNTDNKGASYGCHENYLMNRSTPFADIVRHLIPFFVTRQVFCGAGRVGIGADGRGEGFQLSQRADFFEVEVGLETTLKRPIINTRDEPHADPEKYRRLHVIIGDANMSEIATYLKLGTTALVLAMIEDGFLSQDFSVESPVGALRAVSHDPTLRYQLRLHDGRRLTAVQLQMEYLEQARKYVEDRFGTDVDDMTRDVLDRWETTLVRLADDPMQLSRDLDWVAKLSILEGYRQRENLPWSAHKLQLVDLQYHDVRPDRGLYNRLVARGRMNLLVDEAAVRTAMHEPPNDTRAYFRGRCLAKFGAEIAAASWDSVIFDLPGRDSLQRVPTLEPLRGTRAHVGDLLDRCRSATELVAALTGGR

For `Nc1ncnc2c1ncn2[C@@H]1O[C@H](COP(=O)(O)OP(=O)(O)O)[C@@H](O)[C@H]1O` [ADP], the “X-ray crystal structures, 1.75-1.88 A” value [1] was “We solved the structure of a Dop-Pup complex with a square planar MgFx species bound between ADP and Pup”.

For `Nc1ncnc2c1ncn2[C@@H]1O[C@H](COP(=O)(O)OP(=O)(O)CP(=O)(O)O)[C@@H](O)[C@H]1O` [AMP-PCP], the “X-ray crystal structure, 1.65 A” value [2] was “crystals of the enzyme in complex with the PupQ fragment and AMP-PCP”.

In the case of `Nc1ncnc2c1ncn2[C@@H]1O[C@H](COP(=O)(O)OP(=O)(O)OP(=O)(O)O)[C@@H](O)[C@H]1O` [ATP], the “intact mass spectrometry of phosphorylated PupBSO” value [3] is reported as “Dop indeed forms a phosphorylated PupBSO species in the presence of ATP”.
